Experimental findings from US7605280B2, “Anthraquinone and its derivatives” (Biostatus Limited, priority 1998, dated 2009) are described below.

Molecules are shown by their SMILES.

What all share (test): FACScan (Cytometer C) flow cytometric analysis of DRAQ5-labelled cells
Type in all cases: cell-based, human
A general note: Flow cytometry measures light scatter and fluorescence of single cells or particles in a stream.

One test has as its system Monocytes. On the procedure:
(§1) Suspension cultures were analysed by flow cytometry without washing. Human blood was obtained using routine venepuncture of a healthy donor and samples manipulated using standard haematological procedures for the isolation of mononuclear blood cells and surface antigen recognition using antibody panels (see Table 1).
(§2) Cells were analysed using one of four flow cytometers according to the excitation requirements. • Cytometer A: Single beam high power 647 nm krypton laser excitation: The system was a custom-built cytometer and incorporated an Innova 3000K krypton laser (Coherent Corp., Palo Alto, Calif., USA) tuned to the 647 nm line. Forward light scatter, 90° light scatter and fluorescence emissions were collected for 1×10^4 cells using the 90° light scatter parameter as the master signal. The optical system permitted the analysis of various fluorescence emission wavelengths including: >715 nm (termed low infra-red) and, as reported here >780 nm fluorescence (infra-red ). Forward and 90° light scatter were analysed for the identification of cell debris. Laser power was set at 200 mW and linear amplifiers were used for the fluorescence signals. The analysis optics included a 675 nm cold dichroic mirror, ambient laboratory temperature was approximately 12° C. and the sheath reservoir was maintained at 10° C. Filters were supplied by Melles Griot. Median, mean and mode parameters were calculated for the distribution of fluorescence intensity-values throughout a given cell population. In all experiments, median and mean values produced very similar results. Median values alone are reported since this parameter is less affected by the presence of highly fluorescent cells beyond the upper limit for quantification. • Cytometer B: Dual beam low power 633 nm/high power 488 nm laser excitation: The system was a FACS 440 cell sorter (Becton Dickinson Inc., Cowley, UK) incorporating a Spectra Physics argon ion laser (max 500 mW output), tuned to the 488 nm line (100 mW output), and a secondary Spectra Physics 156 helium-neon laser emitting at 633 nm (emitting <5 mW), with a temporal beam separation of about 30 μsec. Forward light scatter, 90° light scatter and fluorescence emissions were collected for 1×10^4 cells using the forward light scatter parameter as the master signal from the primary 488 nm beam, while side scatter was collected through a 488/10 nm band-pass filter. The analysis optics included: i) a cold dichroic mirror (transmitting >675 nm), ii) fluorescence from fluorescein excited by the 488 nm beam detected at a PMT guarded by a 535/15 nm band-pass filter with no signal delay, and iii) a red-sensitive PMT with an appropriate delay, additionally guarded by a 620 nm long-pass filter, to detect the transmitted beam of DRAQ5-associated fluorescence at wavelengths beyond 675 nm (high-red and extending into the infra red region of the spectrum) Forward and 90° light scatter were analysed to exclude any cell debris. All parameters were acquired at 256 channel resolution with Consort 30 software (Becton Dickinson) and subsequently analysed with WinMDI software (J. Trotter, La Jolla, Calif.). The system employed the same analysis optics when used in the single 488 nm beam mode but with no signal delay for the red-sensitive PMT. • Cytometer C: Single beam, low power 488 nm laser excitation: The system was a FACScan (Becton Dickinson; Inc., Cowley, UK) incorporating an argon ion laser (max 15 mW output), tuned to the 488 nm line. Forward light scatter, 90° light scatter and fluorescence emissions were collected for 1×10^4 cells using the forward light scatter parameter as the master signal. The standard analysis optics provided the FL1 […]/FL3 (red) PMT parameters with pulse analysis performed on the FL3 originating signals. • Cytometer D: Triple beam medium power 633 nm/medium power 488 nm/medium power multiline-UV laser excitation: […]

The subject of another test is Lymphocytes. On the procedure: as §1, §2
A further test relates to Granulocytes. The conditions noted are these: 20 μM DRAQ5, 5 min. On the procedure:
as §1, §2

[1] abbreviates: Preparation 3, 20 μM DRAQ5, 120 min.
Where [2] appears, read: Preparation 3, 4.8 × 10^5/ml, 20 μM DRAQ5, 5 min.
The mark [3] stands for this setting: Preparation 3, 7.5 × 10^5/ml, 20 μM DRAQ5, 5 min.
[4] abbreviates: Preparation 3 Ficoll-isolated viable mononuclear blood cells, 2.5 × 10^5/ml, 20 μM DRAQ5, 5 min.
Where [5] appears, read: Preparation 4 (Preparation 3 plus surface antigen analysis), 20 μM DRAQ5, 5 min.
[6] abbreviates: Preparation 5 whole blood, viable cells, 20 μM DRAQ5, 5 min.
Setting [7] is: Preparation 6 whole blood, cells lysed and fixed, 20 μM DRAQ5, 5 min.

As for `CN(C)CCNc1ccc(O)c2c1C(=O)c1c(O)ccc(NCCN(C)C)c1C2=O` [DRAQ5], the “Mean fluorescence intensity (±sd) of gated population” value (shortened to “Mean fluorescence intensity (±sd)”) in the test with Monocytes (setting [1]) worked out at 342.2 ± 22.4; in the test with Monocytes (setting [2]), 301.8 ± 24.3; with Monocytes (setting [3]), 311.0 ± 30.9; in the test with Monocytes (setting [4]) it was 302.9 ± 25.4; in the test with Monocytes (setting [5]), 317.9 ± 27.3; in the test on Monocytes (setting [6]), 274.6 ± 41.0. The “Mean fluorescence intensity (±sd)” value is on record as 240.2 ± 28.1 with Monocytes (setting [7]); 299.1 ± 23.9 in the test with Lymphocytes (setting [1]); 215.9 ± 26.3 with Lymphocytes (setting [2]); 234.1 ± 27.0 with Lymphocytes (setting [3]); 227.4 ± 24.5 in the test on Lymphocytes (setting [4]); 261.6 ± 26.3 with Lymphocytes (setting [5]). Besides, the “Mean fluorescence intensity (±sd)” value is on record as 257.3 ± 35.0 in the test with Lymphocytes (setting [6]); 228.5 ± 28.5 with Lymphocytes (setting [7]); 248.4 ± 35.9 with Granulocytes (Preparation 5 whole blood, viable cells); 254.3 ± 31.1 in the test on Granulocytes (Preparation 6 whole blood, cells lysed and fixed). For the same compound, the “enhanced staining potential of monocytes versus lymphocytes” value with Monocytes (Preparations 3 and 4) is 1.14-1.4 fold.
